Series [1] in a line: AUC in rat at 5 mg/kg, po. It counts as ADME, organism-based. The following applies: in vivo.
Series [2] in a line: Cmax in rat at 5 mg/kg, po. Details: dose 5 mg/kg, route oral. The settings on record: in vivo. It counts as ADME, organism-based.
A short description of series [3]: Volume of distribution at steady state in rat at 3 mg/kg, iv. The class given is ADME, organism-based. The following applies: in vivo, read-out: Vdss.
The nature of series [4]: Solubility of compound by chemiluminescent nitrogen detection assay. The class given is physicochemical.
Series [5] concerns the target T1, Peptide deformylase (Staphylococcus aureus, UniProt P68826).
T1 sequence (P68826 whole entry): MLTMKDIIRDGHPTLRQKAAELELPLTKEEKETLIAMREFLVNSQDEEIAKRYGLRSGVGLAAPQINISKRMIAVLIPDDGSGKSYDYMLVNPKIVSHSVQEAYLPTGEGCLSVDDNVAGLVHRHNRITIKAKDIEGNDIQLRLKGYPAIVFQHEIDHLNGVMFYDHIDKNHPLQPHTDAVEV
The series is described as follows: Inhibition of Staphylococcus aureus PDF by fluorescence detection assay.

Series [6] is described as follows: Inhibition of Haemophilus influenzae PDF by fluorescence detection assay.
Series [7] has as its system Staphylococcus aureus. The series is described as follows: Antimicrobial activity against Staphylococcus aureus Oxford. The class given is functional.
Series [8] can be described thus: Clearance in rat at 3 mg/kg, iv. It counts as ADME, organism-based. The following applies: in vivo.
Series [9] has as its system Streptococcus pneumoniae. Put plainly: Antimicrobial activity against Streptococcus pneumoniae 1629. It counts as functional.
Series [10] is described as follows: Oral bioavailability in rat at 5 mg/kg. It counts as ADME, organism-based. The following applies: in vivo.
The nature of series [11]: AUC in rat at 3 mg/kg, iv. The class given is ADME, organism-based. The settings on record: in vivo.
The nature of series [12]: Chromatographic hydrophobicity index, log D of compound at pH 7.4. The class given is physicochemical. The settings on record: buffer.
Series [13] is described as follows: Inhibition of Streptococcus pneumoniae PDF by fluorescence detection assay.
For series [14], the system named is Haemophilus influenzae. Put plainly: Antimicrobial activity against Haemophilus influenzae Q1. The class given is functional.
Series [15] is described as follows: Half life in rat at 5 mg/kg, po. It counts as ADME, organism-based. The settings on record: in vivo.
The nature of series [16]: Half life in rat at 3 mg/kg, iv. The settings on record: in vivo. It counts as ADME, organism-based.
Series [17] deals with Streptococcus pneumoniae. The series is described as follows: Antimicrobial activity against Streptococcus pneumoniae Ery-2. The class given is functional.
Series [18] deals with Streptococcus pneumoniae. The series is described as follows: Antimicrobial activity against Streptococcus pneumoniae Ery-2 infected in respiratory tract infection rat model assessed as log reduction in bacterial CFU at 150 mg/kg, po BID dosed 1 hr post infection and measured for 96 hrs. It counts as functional.
The nature of series [19]: Inhibition of Streptococcus pneumoniae PDF by absorbance detection assay.
Series [20] deals with Staphylococcus aureus. The series is described as follows: Antimicrobial activity against Staphylococcus aureus. The class given is functional.
For series [21], the system named is Streptococcus pneumoniae. The series is described as follows: Antimicrobial activity against Streptococcus pneumoniae. The class given is functional.
In series [22] the test system is Haemophilus influenzae. Put plainly: Antimicrobial activity against Haemophilus influenzae. It counts as functional.
The target in series [23] is T1, Peptide deformylase. Put plainly: Inhibition of Staphylococcus aureus PDF by absorbance detection assay.
The nature of series [24]: Inhibition of Haemophilus influenzae PDF by absorbance detection assay.
Series [25] has as its system Streptococcus pneumoniae. The series is described as follows: Antimicrobial activity against Streptococcus pneumoniae Ery-2 infected in respiratory tract infection rat model assessed as log reduction in bacterial CFU at 300 mg/kg, po BID dosed 1 hr post infection and measured for 96 hrs. The class given is functional.
For series [26], the target named is T2, Peptide deformylase (Escherichia coli, UniProt Q9JN24).
T2 sequence (Q9JN24 whole entry): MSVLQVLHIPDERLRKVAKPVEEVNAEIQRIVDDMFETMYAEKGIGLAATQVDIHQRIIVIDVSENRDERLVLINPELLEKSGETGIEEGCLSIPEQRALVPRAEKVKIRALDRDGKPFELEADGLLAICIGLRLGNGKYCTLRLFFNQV
Put plainly: Inhibition of Escherichia coli PDF.

Series [27] concerns Streptococcus pneumoniae. The series is described as follows: Antimicrobial activity against Streptococcus pneumoniae Ery-2 in presence of clavulanic acid. The class given is functional.
Series [28] concerns Streptococcus pneumoniae. The series is described as follows: Antimicrobial activity against Streptococcus pneumoniae Ery-2 infected in respiratory tract infection rat model assessed as log reduction in bacterial CFU at 350 mg/kg, po BID dosed 1 hr post infection and measured for 96 hrs in presence of 50 mg/kg clavulanic acid. It counts as functional.
A short description of series [29]: Half life in rat at 3.9 mg/kg, iv. It counts as ADME, organism-based. The following applies: in vivo.
Series [30] can be described thus: AUC in rat at 3.9 mg/kg, iv. It counts as ADME, organism-based. The settings on record: in vivo.
A short description of series [31]: Oral bioavailability in rat at 8.5 mg/kg. The class given is ADME, organism-based. The settings on record: in vivo.
Series [32] is described as follows: Volume of distribution at steady state in rat at 3.9 mg/kg, iv. The following applies: in vivo, read-out: Vdss. It counts as ADME, organism-based.
Series [33] is described as follows: AUC in rat at 8.5 mg/kg, po. The class given is ADME, organism-based. The following applies: in vivo.
Series [34] can be described thus: Clearance in rat at 3.9 mg/kg, iv. The class given is ADME, organism-based. The following applies: in vivo.
Series [35] is described as follows: Cmax in rat at 8.5 mg/kg, po. The class given is ADME, organism-based. Details: dose 8.5 mg/kg, route oral. The settings on record: in vivo.

The source of these data is ChEMBL document CHEMBL4433235, “Discovery of piperazic acid peptide deformylase inhibitors with in vivo activity for respiratory tract and skin infections” (Bioorg Med Chem Lett, 2019).

Converted amounts (≈) assume the structure as drawn.

Take `CN(C)c1cncc(NC(=O)[C@@H]2CCCNN2C(=O)[C@H](CC2CCCC2)CN(O)C=O)n1`: the figures for the exposure (AUC) in series [1] and in series [11] were 169 ng·h/mL and 685 ng·h/mL, respectively. The compound further registered a maximum concentration (Cmax) in [2] of 53 ng/mL. Further, the Vd in series [3] worked out at 13 L/kg. For the same compound, in [4], the kinetic solubility is more than 515 µM. Moreover, the figures for the IC50 in series [5], in series [6] and in series [13] were 5 nM, 16 nM and 0.79 nM, respectively. Besides, the MIC in [7], in series [9] and in series [14] was 1 µg/mL (≈ 2.23 µM) in each case. In series [8], this compound returned a clearance of 73 mL/min/kg. Besides, the bioavailability in [10] stood at 15%. In series [12], this compound showed a CHI of 3.65. Moreover, the half-life is 10 h in series [15] and 7 h in series [16].

For the compound `CCc1nnc(NC(=O)[C@@H]2CCCNN2C(=O)[C@H](CC2CCCC2)CN(O)C=O)s1`, the MIC in [17] amounted to 0.5 µg/mL (≈ 1.14 µM); in series [7], 1 µg/mL (≈ 2.28 µM); in [9], 1 µg/mL (≈ 2.28 µM); in series [14], 1 µg/mL (≈ 2.28 µM). Moreover, the AUC in series [1] was 1580 ng·h/mL; in series [11], 2140 ng·h/mL. In series [2], this compound had a peak concentration (Cmax) of 711 ng/mL. For the same compound, the Vd in [3] was 4 L/kg. The compound also yielded a kinetic solubility in series [4] of 530 µM (≈ 232 µg/mL). Moreover, the Activity in [18] is on record as 0.8 log10CFU/ml; in series [25], 1.7 log10CFU/ml. The values for the IC50 in series [19], in [23] and in [24] were 0.4 nM, 1 nM and 2 nM, respectively. Besides, the MIC90 in series [20] is 2 µg/mL (≈ 4.56 µM); in [21] it was 1 µg/mL (≈ 2.28 µM); in series [22], 2 µg/mL (≈ 4.56 µM). The compound further yielded a clearance in series [8] of 20 mL/min/kg. For the same compound, the bioavailability in series [10] is 36%. In series [12], this compound yielded a CHI of 3.38. Moreover, the half-life in series [15] is 4.7 h; in series [16] it was 6.7 h.

For the compound `Cc1nc(NC(=O)[C@@H]2CCCNN2C(=O)[C@H](CC2CCCC2)CN(O)C=O)sc1C`, the AUC in series [1] was 700 ng·h/mL; in series [11] it was 1030 ng·h/mL. In [2], the Cmax was 349 ng/mL. Also, the Vd in series [3] amounted to 1.6 L/kg. Further, the kinetic solubility in series [4] came out at 381 µM (≈ 167 µg/mL). Also, the 50% inhibitory concentration (IC50) in [19] stood at 0.2 nM; in [23], 0.63 nM; in series [24], 1 nM. For the same compound, the values for the MIC90 in series [20], in series [21] and in series [22] were 0.5 µg/mL (≈ 1.14 µM), 0.5 µg/mL (≈ 1.14 µM) and 2 µg/mL (≈ 4.57 µM), respectively. The values for the MIC in series [7], in series [9] and in series [14] were 0.25 µg/mL (≈ 0.571 µM), 1 µg/mL (≈ 2.29 µM) and 2 µg/mL (≈ 4.57 µM), respectively. In series [8], this compound registered a clearance of 49 mL/min/kg. In addition, in series [10], the bioavailability was found to be 41%. In addition, the CHI in series [12] amounted to 4.29. Besides, the half-life in series [15] is 3.8 h; in series [16], 1.1 h.

Take `CCC(=O)[C@@H](NC(=O)[C@@H]1CCCNN1C(=O)[C@@H](CC(=O)O)CC(C)C)C(C)C`: in series [26], the affinity corresponds to a Ki of 60 nM.

Regarding `CC1(C)S[C@@H]2[C@H](NC(=O)[C@H](N)c3ccc(O)cc3)C(=O)N2[C@H]1C(=O)O` [AMOXICILLIN], the MIC in series [27] stood at 0.03 µg/mL. In [28], the Activity was determined as 5.2 log10CFU/ml.

Take `Cc1nc(NNC(=O)[C@H](CC2CCCC2)CN(O)C=O)c(F)c(N2CCN3CCOC[C@@H]3C2)n1` [LANOPEPDEN]: the half-life in series [29] was 0.7 h. For the same compound, the exposure (AUC) in [30] worked out at 720 ng·h/mL; in [33], 1450 ng·h/mL. In series [4], this compound registered a solubility (kinetic) of 241 µM (≈ 116 µg/mL). Also, the concentration for half-maximal inhibition (IC50) in series [19] came out at 3 nM; in series [23] it was 12 nM; in series [24] it was 3 nM. The MIC90 in series [20] is 4 µg/mL (≈ 8.34 µM); in series [21], 1 µg/mL (≈ 2.09 µM); in series [22] it was 2 µg/mL (≈ 4.17 µM). Moreover, the bioavailability in series [31] was found to be 91%. Further, the figures for the MIC in series [7], in series [9] and in [14] were 2 µg/mL (≈ 4.17 µM), 1 µg/mL (≈ 2.09 µM) and 0.5 µg/mL (≈ 1.04 µM), respectively. Further, in series [32], the Vd was 2.5 L/kg. In series [34], the clearance amounted to 88 mL/min/kg. In addition, the CHI in [12] is given as 2.54. In [35], this compound gave a Cmax of 902 ng/mL.
